Assay results as given in US8088791B2, “Antibacterial agents” (Biots Scientific Management Pty Ltd, priority 2006, dated 2012).
Where two headings read alike, the source gives them in different places.

Tests used:
Bacillus subtilis 168CA = test: Minimum Inhibitory Concentration (MIC) testing, broth microdilution, Bacillus subtilis; assay type: cell-based; details: Bacillus subtilis 168CA; read-out: Bacillus subtilis MICs Activity
Outline: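 MICs were scored A (≦8 μg/ml), B (16–64 μg/ml) or C (>64 μg/ml), read as the lowest concentration preventing visible growth by eye and spectrophotometry. Plates incubated overnight (16–20 h) at 37 °C, inoculum OD 0.09 diluted 1:100 in 2× broth, per NCCLS guidelines.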

[1] = test system: staphylococcal clinical isolates; test: Minimum Inhibitory Concentration (MIC) testing, broth microdilution, staphylococcal clinical isolates; assay type: cell-based; details: for MIC: read-out: MIC Activity against clinical isolate
Experimental: Compounds of this invention were tested for antimicrobial activity by susceptibility testing in liquid media. MICs for compounds against each strain were determined by a broth microdilution method according to the National Committee for Clinical Laboratory Standards (NCCLS) guidelines. (NCCLS. 2000. Methods for dilution antimicrobial susceptibility tests for bacteria that grow aerobically—fifth edition. Approved standard M7-A5. NCCLS, Wayne, Pa.)
Briefly, test compounds are prepared in 100 μl of 1.6% DMSO solution in multiwell plates. Several bacterial colonies from a freshly streaked plate are transferred to an appropriate rich broth, such as Mueller Hinton. The cell suspension is adjusted to an optical density of 0.09 and further diluted 1:100 with warm 2× broth. This cell suspension is dispensed into the wells containing compound solution so that the final volume is 200 μl. The plates are incubated overnight (16-20 hours) at 37° C. and turbidity is scored by eye and quantified spectrophotometrically. The MIC is defined as the lowest concentration inhibiting visible growth.
Some of the Examples were also tested for activity against staphylococcal clinical isolates. […] Activities were again scored as ‘A’ if the MIC was ≦8 micrograms/ml, ‘B’ if the MIC was 16 to 64 micrograms/ml and ‘C’ if the MIC was greater than 64 micrograms/ml.

Staphylococcus aureus = test: mouse Staphylococcus aureus septicaemia model of infection; assay type: in vivo; details: survival at day 7 of infected mice; single intraperitoneal dose of 100 mg/kg at 1 hour after intraperitoneal inoculation with a lethal dose of Staphylococcus aureus
Experimental: Some of the Examples were also tested for activity in a mouse Staphylococcus aureus septicaemia model of infection.

[2] = test system: various bacterial species; test: Minimum Inhibitory Concentration (MIC) testing, broth microdilution, other bacterial species; assay type: cell-based
Outline: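 Broth microdilution per NCCLS M7-A5 in rich broth (e.g. Mueller Hinton), inoculum from OD 0.09 suspension diluted 1:100 in 2× broth. Incubation 16-20 hours at 37° C; turbidity scored visually and spectrophotometrically. MIC is the lowest concentration inhibiting visible growth, binned A ≦8, B 16-64, C >64 micrograms/ml.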

[3] = test system: Staphylococcus aureus ATCC29213; test: Minimum Inhibitory Concentration (MIC) testing, broth microdilution, Staphylococcus aureus; assay type: cell-based; details: Staphylococcus aureus ATCC29213; read-out: Staphylococcus aureus MICs Activity
Outline: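 Broth microdilution per NCCLS M7-A5 in Mueller Hinton broth, with compound in 1.6% DMSO and inoculum at OD 0.09 diluted 1:100. Plates incubated 16–20 h at 37°C. MIC is the lowest concentration with no visible growth; scored A ≤8, B 16–64, C >64 μg/ml.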

NC(=O)c1c(F)ccc(OCc2nc3cc(Cl)ccc3s2)c1F [Example 218, 3-[(5-Chloro-1,3-benzothiazol-2-yl)methoxy]-2,6-difluorobenzenecarboxamide]
MIC (Bacillus subtilis 168CA): < 8 µg/mL
MIC Activity against clinical isolate ([1]; S. aureus No. 753, Oxacillin S, Hospital): A (‘A’ if the MIC was ≦8 micrograms/ml)
MIC Activity against clinical isolate ([1]; S. aureus No. 757, Oxacillin R, Tet-R, MI-R, Hospital (tetM)): A (‘A’ if the MIC was ≦8 micrograms/ml)
MIC Activity against clinical isolate ([1]; S. aureus No. 1134, Oxacillin S, Hospital): A (‘A’ if the MIC was ≦8 micrograms/ml)
MIC Activity against clinical isolate ([1]; S. aureus No. 1135, Oxacillin R, Van-S, LZD-S, Hospital): A (‘A’ if the MIC was ≦8 micrograms/ml)
MIC Activity against clinical isolate ([1]; S. aureus No. 1651, Oxacillin R, Van-S, LZD-R, Hospital (G2576T, G)): A (‘A’ if the MIC was ≦8 micrograms/ml)
MIC Activity against clinical isolate ([1]; S. aureus No. 1652, Oxacillin R, Van-S, LZD-R, Hospital (T2500T, A)): A (‘A’ if the MIC was ≦8 micrograms/ml)
MIC Activity against clinical isolate ([1]; S. aureus No. 1662, Oxacillin S, Hospital): A (‘A’ if the MIC was ≦8 micrograms/ml)
MIC Activity against clinical isolate ([1]; S. aureus No. 1725, Oxacillin R, Van-S, LZD-R, Hospital (G2576T)): A (‘A’ if the MIC was ≦8 micrograms/ml)
MIC Activity against clinical isolate ([1]; S. aureus No. 1729, Oxacillin R, Tet-R, MI-R, Hospital): A (‘A’ if the MIC was ≦8 micrograms/ml)
MIC Activity against clinical isolate ([1]; S. aureus No. 2011, Oxacillin R, Tet-R, MI-S, Hospital (tetK)): A (‘A’ if the MIC was ≦8 micrograms/ml)
MIC Activity against clinical isolate ([1]; S. aureus No. 2012, Oxacillin R, Van-I, LZD-S, Hospital): A (‘A’ if the MIC was ≦8 micrograms/ml)
MIC Activity against clinical isolate ([1]; S. aureus No. 2018, Oxacillin R, Van-I, LZD-S, Hospital): A (‘A’ if the MIC was ≦8 micrograms/ml)
MIC Activity against clinical isolate ([1]; S. aureus No. 2142, Oxacillin R, CC-S, SXT-S, Community): A (‘A’ if the MIC was ≦8 micrograms/ml)
MIC Activity against clinical isolate ([1]; S. aureus No. 2143, Oxacillin R, Rif-R, Community): A (‘A’ if the MIC was ≦8 micrograms/ml)
MIC Activity against clinical isolate ([1]; S. aureus No. 2147, Oxacillin R, CC-S, SXT-S, Community): A (‘A’ if the MIC was ≦8 micrograms/ml)
MIC Activity against clinical isolate ([1]; S. aureus No. 2149, Oxacillin R, CC-R (iMLS), SXT-S, Community): A (‘A’ if the MIC was ≦8 micrograms/ml)
MIC Activity against clinical isolate ([1]; S. aureus No. 2150, Oxacillin R, CC-R, SXT-S, Community): A (‘A’ if the MIC was ≦8 micrograms/ml)
MIC Activity against clinical isolate ([1]; S. aureus No. 2158, Oxacillin R, CC-R, Doxy-I, Community): A (‘A’ if the MIC was ≦8 micrograms/ml)
MIC Activity against clinical isolate ([1]; S. aureus No. 2175, Oxacillin R, TMP-R, Community): A (‘A’ if the MIC was ≦8 micrograms/ml)
MIC Activity against clinical isolate ([1]; S. epidermidis No. 831, Oxacillin R): A (‘A’ if the MIC was ≦8 micrograms/ml)
MIC Activity against clinical isolate ([1]; S. epidermidis No. 1139, Oxacillin S): A (‘A’ if the MIC was ≦8 micrograms/ml)
MIC Activity against clinical isolate ([1]; S. epidermidis No. 1142, Oxacillin R): A (‘A’ if the MIC was ≦8 micrograms/ml)
MIC Activity against clinical isolate ([1]; S. epidermidis No. 1144, Oxacillin R): A (‘A’ if the MIC was ≦8 micrograms/ml)
MIC ([1]; Staphylococcus aureus, ATCC29213, S. aureus No. 0100, Oxacillin S, ATCC 29213): < 8 µg/mL
MIC ([1]; Staphylococcus aureus, S. aureus No. 1015, Oxacillin R, Van-S, LZD-S, Hospital): < 8 µg/mL
MIC ([1]; Staphylococcus epidermidis, S. epidermidis No. 835, Oxacillin S): < 8 µg/mL
Percent survival (Staphylococcus aureus): 100%
MIC ([2]; Bacillus cereus, ATCC14579, read-out: MIC Activity Bacillus cereus ATCC 14579): < 8 µg/mL
MIC ([2]; Staphylococcus epidermidis, ATCC12228, read-out: MIC Activity Staphylococcus epidermidis ATCC 12228): < 8 µg/mL
MIC ([2]; Staphylococcus haemolyticus, ATCC29970, read-out: MIC Activity Staphylococcus haemolyticus ATCC 29970): < 8 µg/mL
MIC ([2]; Staphylococcus saprophyticus, ATCC15305, read-out: MIC Activity Staphylococcus saprophyticus ATCC 15305): < 8 µg/mL
MIC [3]: < 8 µg/mL
